Data set [1] is described as follows: Half life of the compound under atmospheric pressure condition. The class given is physicochemical.
A short description of data set [2]: Half life of the compound under in-vacuo condition. The class given is physicochemical.
Data set [3] is described as follows: Chemical stability of the compound. The class given is physicochemical.
Data set [4] can be described thus: Drug metabolism in rat urine treated with nitrofurantoin at 100 mg/kg, po measured up to 6 hrs by NMR-spectroscopic analysis. The class given is ADME, organism-based. Also noted: dose 100 mg/kg, route oral. The note with it: in vivo.
The nature of data set [5]: Drug metabolism in rat urine treated with nitrofurantoin at 100 mg/kg, po measured up to 6 hrs by IR-spectroscopic analysis. Also on record: dose 100 mg/kg, route oral. The class given is ADME, organism-based. The note with it: in vivo.
Data set [6] in a line: Drug metabolism in rat urine treated with nitrofurantoin at 100 mg/kg, po measured up to 6 hrs by UV-spectroscopic analysis. The class given is ADME, organism-based. Also noted: dose 100 mg/kg, route oral. The note with it: in vivo.
Data set [7] is described as follows: Half life of the compound in 0.1% aqueous solution. The class given is physicochemical.
Data set [8] in a line: Dissociation constant, pKa of the compound by potentiometric titration analysis. The class given is physicochemical.

For the compound `O.O=C1OCCN1/N=C/c1cc(O)c([N+](=O)[O-])o1`, the half-life (usually the time needed for the level to fall by half in the phase considered) in data set [1] is 120 h; in data set [2], > 624 h.

Take `O.O=C1CN(/N=C/C2=CC(=O)C(=[N+]([O-])[O-])O2)C(=O)N1.[K+]`: in data set [3], the Stability entry is given as “Stable”. Moreover, the Drug metabolism result in data set [4], in data set [5] and in data set [6] was “metabolite_detected” in each case.

Turning to `O.O.O=C1OCCN1/N=C/c1cc(O)c([N+](=O)[O-])o1`, the half-life at 0.1 % in data set [7] is 48 h. Besides, the pKa (usually the negative logarithm of the acid dissociation constant) in data set [8] is 2.7.

With `O=C1C=C(/C=N/N2CCOC2=O)OC1=[N+]([O-])[O-].[K+]`, the Stability result in data set [3] was “Stable”.
